# Results reported in US20230348622A1, “USE OF LANCL1 AND ANTIBODIES THEREOF AS A DIAGNOSTIC AND THERAPEUTIC TARGET FOR THE MANAGEMENT AND TREATMENT OF CANCER” (The University of Hong Kong, priority 2022, published 2023).
# System: PLC/PRF/5 and MHCC-97L cells
# Test: Intracellular ROS level in LANCL1-KD HCC cells
# Format: cell-based, human
# Details: addition of oxidizing agent
smiles,measurement,value
"CC(C)(C)OO [TBHP, tert-Butyl hydroperoxide]",ROS levels,significantly increased
